Molecular target: T1, iRFP713 (Rhodopseudomonas palustris, UniProt G1FNL7, C15S)
T1 construct: gene iRFP; N-terminal polyhistidine tag; E. coli LMG194 with heme oxygenase; dimer
Test: zinc-staining SDS-PAGE, absorption/fluorescence spectra, GdnHCl unfolding
Details: noncovalent; GAF pocket; no BV-binding Cys

## C=CC1=C(C)C(=Cc2[nH]c(C=C3N=C(C=C4NC(=O)C(C)=C4C=C)C(C)=C3CCC(=O)O)c(CCC(=O)O)c2C)NC1=O [biliverdin IXα]
  zinc-staining SDS-PAGE, absorption/fluorescence spectra, GdnHCl unfolding: BV was the most weakly associated with NIR FP variants having no Cys residues

Reference: publication PMC4698714, “Allosteric effects of chromophore interaction with dimeric near-infrared fluorescent proteins engineered from bacterial phytochromes” (Scientific Reports, 2016)
